{
  "source": "paper PMC9645260",
  "about": "“Small-molecule inhibitors of P-Rex guanine-nucleotide exchange factors” (Small GTPases, 2022)",
  "key": {"HEK-293 cells": {"system": "HEK-293 cells", "assay": "Cell cycle stages by propidium iodide flow cytometry", "assay_type": "cell-based", "procedure": "Human embryonic kidney 293 (HEK-293) cells were grown at 37°C in a humidified 5% CO2 atmosphere in Dulbecco’s modified Eagle medium (DMEM, Gibco) supplemented with 10% foetal bovine serum (FBS), 100 units/ml penicillin and 100 µg/ml streptomycin. Cells were passaged by tryptic digest 1:4 approximately every 2 days. To measure cell cycle stages, 2 ml HEK293 cells were plated per well of a 6-well dish (Thermo Scientific, Nunc) at 10^5 cells/ml. After 24 h, the medium was replaced with fresh medium containing various concentrations of PREX-in1, as indicated, or 10 μM NSC23766, or vehicle control (0.1% DMSO), and cells were incubated for a further 24 h. The medium was removed but kept aside to recover any detached cells. Wells were washed with PBS, and cells recovered by trypsinization. Cell suspensions were pooled with the culture supernatant and centrifuged at 433 × g for 5 min at RT. Cells were washed in PBS, resuspended in ice-cold 70% ethanol/PBS, and incubated for 30 min at 4°C for fixation and permeabilization. Cells were washed once more in PBS, then stained with 50 µg/ml propidium iodide in PBS containing 100 µg/ml RNase for 30 min at 37°C. Cells were analysed by flow cytometry for the intensity of propidium iodide staining using a FACSCalibur flow cytometer. 10,000 cells were analysed per sample. Data analysis was done using FloJo software."}, "[1]": {"system": "primary mouse neutrophils", "assay": "Neutrophil ROS production, PMA-stimulated", "assay_type": "cell-based", "settings": "1 µM, 500 nM PMA", "procedure": "Prex^−/− mice (Prex1^−/−Prex2^−/−) with general P-Rex deficiency were described previously and were compared to Prex^+/+ (Prex1^+/+Prex2^+/+) control mice on the same genetic background (C57Bl6/129Ola backcrossed seven times to C57Bl6). Mice were group-housed (up to 5) under specific opportunistic pathogen-free isolator conditions in Babraham’s small animal barrier facility that uses 12 h light/dark cycles with dusk and dawn settings, and were fed chow diet and water ad libitum. Mice from both sexes were used for experiments, at young-adult age (between 8 and 14 weeks), and were sex- and age-matched between genotypes within experiments. […]\nMature primary neutrophils were isolated from the bone marrow of age- and sex-matched Prex^+/+ and Prex^−/− mice freshly each day at 4°C, using Percoll^Plus (GE Healthcare) gradient, as described, using endotoxin-free media throughout. Isolated neutrophils were 70–90% pure, as assessed by KwikDiff staining of cytospins. ROS production was measured by real-time chemiluminescence assay as described, except that neutrophils were incubated with PREX-in1 before the assay. […] Real-time ROS production was recorded in a Berthold MicroLumat Plus luminometer (Berthold Technologies) at 37°C, for 2.5 min with fMLP stimulation or for 10 min with PMA stimulation. […]"}},
  "data": [
    {"smiles": "COc1ccc(-c2[nH]nc3c2C(c2ccc(-c4ccc(Cl)cc4)o2)C(C#N)=C(N)O3)cc1", "note": "(stereo not drawn) [PREX-in1, 6-amino-4-[5-(4-chlorophenyl)-2-furyl]-3-(4-methoxyphenyl)-2,4-dihydropyrano[2,3-c]pyrazole-5-carbonitrile]", "values": [
      {"measurement": "cytotoxic effects", "setting": "HEK-293 cells; 1 µM", "value": "did not observe cytotoxic effects"},
      {"measurement": "cell death (sub-G1 phase)", "setting": "HEK-293 cells; 24 h treatment, 10 µM", "value": "promotes cell death"},
      {"measurement": "effect on PMA-induced ROS response", "setting": "[1]", "value": "unaffected"}
    ]}
  ]
}
